Activity calls are given as the source filed them. The calls are words filed in the database; no cut-off is given here.
Key:
[1] = target: T1, von Hippel-Lindau disease tumor suppressor/Protein arginine N-methyltransferase 5 (Homo sapiens, UniProt O14744+P40337); assay: PROTAC activity at […]/VHL in human MDA-MB-468 cells assessed as relative protein level at 0.5 uM measured after 24 hrs by Western blot analysis; format: cell-based
Target sequence in this assay (O14744 whole entry, looked up): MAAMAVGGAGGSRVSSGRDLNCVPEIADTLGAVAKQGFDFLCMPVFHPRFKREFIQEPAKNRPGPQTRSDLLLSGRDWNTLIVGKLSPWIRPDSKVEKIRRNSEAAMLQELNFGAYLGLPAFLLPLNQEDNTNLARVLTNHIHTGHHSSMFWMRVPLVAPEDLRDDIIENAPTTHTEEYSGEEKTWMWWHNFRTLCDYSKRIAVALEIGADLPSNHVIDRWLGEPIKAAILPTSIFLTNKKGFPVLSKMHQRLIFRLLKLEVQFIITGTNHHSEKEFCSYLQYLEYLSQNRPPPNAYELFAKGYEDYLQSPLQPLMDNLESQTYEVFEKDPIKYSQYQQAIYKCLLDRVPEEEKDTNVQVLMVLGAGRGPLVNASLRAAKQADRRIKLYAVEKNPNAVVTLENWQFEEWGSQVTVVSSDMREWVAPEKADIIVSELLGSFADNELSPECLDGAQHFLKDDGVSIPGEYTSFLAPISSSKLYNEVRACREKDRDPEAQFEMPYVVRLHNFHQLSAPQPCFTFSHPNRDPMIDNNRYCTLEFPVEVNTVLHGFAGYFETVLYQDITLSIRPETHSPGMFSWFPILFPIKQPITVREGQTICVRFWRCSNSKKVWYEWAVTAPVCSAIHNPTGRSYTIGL
Target sequence in this assay (P40337 whole entry, looked up): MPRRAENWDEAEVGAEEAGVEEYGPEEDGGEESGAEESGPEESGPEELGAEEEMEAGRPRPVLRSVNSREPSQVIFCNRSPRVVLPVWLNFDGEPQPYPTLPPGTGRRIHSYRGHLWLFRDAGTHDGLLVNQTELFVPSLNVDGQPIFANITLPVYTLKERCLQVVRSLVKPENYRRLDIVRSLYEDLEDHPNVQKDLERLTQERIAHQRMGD

[2] = target: T1, von Hippel-Lindau disease tumor suppressor/Protein arginine N-methyltransferase 5; assay: PROTAC activity at PRMT5/VHL in human MDA-MB-468 cells assessed as relative protein level at 5 uM measured after 24 hrs by Western blot analysis; format: cell-based
Target sequence in this assay (O14744 whole entry, looked up): as the sequence (O14744 whole entry, looked up) above
Target sequence in this assay (P40337 whole entry, looked up): as the sequence (P40337 whole entry, looked up) above

[3] = target: T2, von Hippel-Lindau disease tumor suppressor/Methylosome protein WDR77 (Homo sapiens, UniProt Q9BQA1+P40337); assay: PROTAC activity at MEP50/VHL in human MDA-MB-468 cells assessed as relative protein level at 0.5 uM measured after 24 hrs by Western blot analysis; format: cell-based
[4] = target: T2, von Hippel-Lindau disease tumor suppressor/Methylosome protein WDR77; assay: PROTAC activity at MEP50/VHL in human MDA-MB-468 cells assessed as relative protein level at 5 uM measured after 24 hrs by Western blot analysis; format: cell-based
[5] = target: T1, von Hippel-Lindau disease tumor suppressor/Protein arginine N-methyltransferase 5; assay: PROTAC activity at PRMT5/VHL in human MDA-MB-468 cells assessed as degradation measured after 72 hrs by Western blot analysis; format: cell-based
Target sequence in this assay (O14744 whole entry): as the sequence (O14744 whole entry, looked up) above
Target sequence in this assay (P40337 whole entry): as the sequence (P40337 whole entry, looked up) above

[6] = target: T2, von Hippel-Lindau disease tumor suppressor/Methylosome protein WDR77; assay: PROTAC activity at MEP50/VHL in human MDA-MB-468 cells assessed as maximal degradation measured after 72 hrs by Western blot analysis relative to control; format: cell-based
[7] = target: T1, von Hippel-Lindau disease tumor suppressor/Protein arginine N-methyltransferase 5; assay: PROTAC activity at PRMT5/VHL in human MDA-MB-468 cells assessed as degradation at 2 uM by Western blot analysis; format: cell-based; conditions: time 3-48 hrs
Target sequence in this assay (O14744 whole entry, looked up): as the sequence (O14744 whole entry, looked up) above
Target sequence in this assay (P40337 whole entry, looked up): as the sequence (P40337 whole entry, looked up) above

[8] = target: Protein arginine N-methyltransferase 5 (Homo sapiens, UniProt O14744); assay: Inhibition of PRMT5 (unknown origin) using S-adenosylmethionine (SAM) using as substrate preincubated for 30 mins followed by substrate addition measured after 60 mins by microplate reader
[9] = target: T1, von Hippel-Lindau disease tumor suppressor/Protein arginine N-methyltransferase 5; assay: PROTAC activity at PRMT5/VHL in human MDA-MB-468 cells assessed as degradation pretreated with GSKi (EPZ015666) followed by treated at 5 uM of compound after 24 hrs by Western blot analysis; format: cell-based
Target sequence in this assay (O14744 whole entry, looked up): as the sequence (O14744 whole entry, looked up) above
Target sequence in this assay (P40337 whole entry, looked up): as the sequence (P40337 whole entry, looked up) above

[10] = target: T1, von Hippel-Lindau disease tumor suppressor/Protein arginine N-methyltransferase 5; assay: PROTAC activity at PRMT5/VHL in human MDA-MB-468 cells assessed as degradation pretreated with VHL-1 followed by treated at 5 uM of compound after 24 hrs by Western blot analysis; format: cell-based
Target sequence in this assay (O14744 whole entry, looked up): as the sequence (O14744 whole entry, looked up) above
Target sequence in this assay (P40337 whole entry, looked up): as the sequence (P40337 whole entry, looked up) above

[11] = target: T1, von Hippel-Lindau disease tumor suppressor/Protein arginine N-methyltransferase 5; assay: PROTAC activity at PRMT5/VHL in human MDA-MB-468 cells assessed as degradation pretreated with MG132 proteasome inhibitor followed by treated at 5 uM of compound after 24 hrs by Western blot analysis; format: cell-based
Target sequence in this assay (O14744 whole entry, looked up): as the sequence (O14744 whole entry, looked up) above
Target sequence in this assay (P40337 whole entry, looked up): as the sequence (P40337 whole entry, looked up) above

[12] = target: T1, von Hippel-Lindau disease tumor suppressor/Protein arginine N-methyltransferase 5; assay: PROTAC activity at PRMT5/VHL in human MDA-MB-468 cells assessed as degradation pretreated with MLN4924 neddylation inhibitor followed by treated at 5 uM of compound after 24 hrs by Western blot analysis; format: cell-based
[13] = target: T1, von Hippel-Lindau disease tumor suppressor/Protein arginine N-methyltransferase 5; assay: PROTAC activity at PRMT5/VHL in VHL KO human MDA-MB-468 cells assessed as degradation at 0.5 uM of compound after 24 hrs by Western blot analysis; format: cell-based
[14] = target: T1, von Hippel-Lindau disease tumor suppressor/Protein arginine N-methyltransferase 5; assay: PROTAC activity at PRMT5/VHL in human MDA-MB-468 cells assessed as downregulation of PRMT5 at 2 uM of compound after 24 hrs by mass spectrometry (MS)-based global proteomic study; format: cell-based
[15] = target: T2, von Hippel-Lindau disease tumor suppressor/Methylosome protein WDR77; assay: PROTAC activity at MEP50/VHL in human MDA-MB-468 cells assessed as downregulation of MEP50 at 2 uM of compound after 24 hrs by mass spectrometry (MS)-based global proteomic study; format: cell-based
MDA-MB-468 = assay: Inhibition of sDMA (symmetric dimethylarginine) level in human MDA-MB-468 cells at 2 uM measured after 7 days by Western blot analysis; format: functional, cell-based; conditions: time 7.0 day
[16] = target: T1, von Hippel-Lindau disease tumor suppressor/Protein arginine N-methyltransferase 5; assay: PROTAC activity at PRMT5/VHL in human MDA-MB-453 cells assessed as degradation at 0.5 uM after 3 days by Western blot analysis; format: cell-based; conditions: time 3.0 day
[17] = target: T1, von Hippel-Lindau disease tumor suppressor/Protein arginine N-methyltransferase 5; assay: PROTAC activity at PRMT5/VHL in human MCF7 cells assessed as degradation at 5 uM after 3 days by Western blot analysis; format: cell-based; conditions: time 3.0 day
[18] = target: T2, von Hippel-Lindau disease tumor suppressor/Methylosome protein WDR77; assay: PROTAC activity at MEP50/VHL in human MCF7 cells assessed as degradation at 0.5 uM after 3 days by Western blot analysis; format: cell-based; conditions: time 3.0 day
[19] = target: T2, von Hippel-Lindau disease tumor suppressor/Methylosome protein WDR77; assay: PROTAC activity at MEP50/VHL in human MCF7 cells assessed as degradation at 5 uM after 3 days by Western blot analysis; format: cell-based; conditions: time 3.0 day
[20] = target: T1, von Hippel-Lindau disease tumor suppressor/Protein arginine N-methyltransferase 5; assay: PROTAC activity at PRMT5/VHL in human MDA-MB-231 cells assessed as degradation at 0.5 uM after 3 days by Western blot analysis; format: cell-based; conditions: time 3.0 day
[21] = target: T2, von Hippel-Lindau disease tumor suppressor/Methylosome protein WDR77; assay: PROTAC activity at MEP50/VHL in human MDA-MB-231 cells assessed as degradation at 0.5 uM after 3 days by Western blot analysis; format: cell-based; conditions: time 3.0 day
[22] = target: T2, von Hippel-Lindau disease tumor suppressor/Methylosome protein WDR77; assay: PROTAC activity at MEP50/VHL in human MDA-MB-231 cells assessed as degradation at 5 uM after 3 days by Western blot analysis; format: cell-based; conditions: time 3.0 day
[23] = target: T2, von Hippel-Lindau disease tumor suppressor/Methylosome protein WDR77; assay: PROTAC activity at MEP50/VHL in human MDA-MB-453 cells assessed as degradation at 0.5 uM after 3 days by Western blot analysis; format: cell-based; conditions: time 3.0 day
[24] = target: T2, von Hippel-Lindau disease tumor suppressor/Methylosome protein WDR77; assay: PROTAC activity at MEP50/VHL in human MDA-MB-453 cells assessed as degradation at 5 uM after 3 days by Western blot analysis; format: cell-based; conditions: time 3.0 day
MDA-MB-453 = assay: Growth inhibition of human MDA-MB-453 cells assessed as cell viability measured after 5 days by CCK-8 assay; format: functional, cell-based; conditions: time 5.0 day
MCF7 = assay: Growth inhibition of human MCF7 cells assessed as cell viability measured after 5 days by CCK-8 assay; format: functional, cell-based; conditions: time 5.0 day
BT-549 = assay: Growth inhibition of human BT-549 cells assessed as cell viability measured after 5 days by CCK-8 assay; format: functional, cell-based; conditions: time 5.0 day
PC-3 = assay: Inhibition of colony formation in human PC-3 cells incubated for 10 days by crystal violet staining based analysis; format: functional, cell-based; conditions: time 10.0 day
MCF-10A [25] = assay: PROTAC activity at MEP50/VHL in human MCF-10A cells assessed as degradation at 0.5 to 5 uM after 3 days by Western blot analysis; format: cell-based; conditions: dose 0.5-5 µM, time 3.0 day
[26] = target: T2, von Hippel-Lindau disease tumor suppressor/Methylosome protein WDR77; assay: PROTAC activity at MEP50/VHL in human PNT2 cells assessed as degradation at 0.5 to 5 uM after 3 days by Western blot analysis; format: cell-based; conditions: dose 0.5-5 µM, time 3.0 day
MCF-10A [27] = assay: Cytotoxicity against human MCF10A cells assessed as cell viability up to 15 uM measured after 5 days by CCK-8 assay; format: toxicity, cell-based; conditions: 120 h, time 5 day
[28] = Cmax in Swiss albino mouse plasma at 50 mg/kg, ip measured after 0.5 hrs by LC-MS/MS analysis; format: ADME, organism-based; conditions: in vivo
[29] = Plasma concentration in Swiss albino mouse at 50 mg/kg, ip measured after 8 hrs by LC-MS/MS analysis; format: ADME, organism-based
[30] = PROTAC activity at PRMT5/VHL in human PNT2 cells assessed as degradation at 0.5 to 5 uM after 3 days by Western blot analysis; conditions: dose 0.5-5 µM, time 3.0 day

T2 sequence (P40337 whole entry, looked up): as above
T2 sequence (Q9BQA1 whole entry, looked up): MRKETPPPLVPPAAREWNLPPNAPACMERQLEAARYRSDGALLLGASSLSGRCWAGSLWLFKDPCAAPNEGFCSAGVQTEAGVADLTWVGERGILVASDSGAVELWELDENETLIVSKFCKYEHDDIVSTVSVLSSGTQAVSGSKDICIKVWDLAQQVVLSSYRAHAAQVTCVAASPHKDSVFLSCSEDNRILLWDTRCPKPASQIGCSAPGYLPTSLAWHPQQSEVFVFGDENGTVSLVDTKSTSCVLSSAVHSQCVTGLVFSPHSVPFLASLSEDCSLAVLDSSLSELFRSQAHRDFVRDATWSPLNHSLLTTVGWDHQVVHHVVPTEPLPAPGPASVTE
Protein arginine N-methyltransferase 5, sequence (O14744 whole entry): as the sequence (O14744 whole entry, looked up) above

For `Cc1ncsc1-c1ccc([C@H](CC(=O)NCCOCCOCCOCCOCCOCCC(=O)N2CCC(Nc3cc(C(=O)NC[C@H](O)CN4CCc5ccccc5C4)ncn3)CC2)NC(=O)[C@@H]2C[C@@H](O)CN2C(=O)[C@@H](NC(=O)C2(F)CC2)C(C)(C)C)cc1`, the Activity [1] was “Active”, the Activity [2] was “Active” and the Activity [3] was “Active”. For the same compound, the Activity [4] was “Active”, the DC50 [5] was 0.0174 µM and the Emax [6] was 91.4%. For the same compound, the Activity [7] was “Time-dependent-effect”, the IC50 [8] was 2.1 µM and the Activity [9] was “inactive”. The Activity [10] was “inactive”, the Activity [11] was “inactive” and the Activity [12] was “inactive”. The Activity [13] was “Not active; Complete Rescue Not Observed - Due To Incomplete Vhl Ko”, the Activity [14] was “Active” and the Activity [15] was “Active”. The inhibition (MDA-MB-468) was “Active”, the Activity [16] was “Active” and the Activity [17] was “Active”. The Activity [18] was “Active”, the Activity [19] was “Active” and the Activity [20] was “Active”. The Activity [21] was “Active”, the Activity [22] was “Active” and the Activity [23] was “Active”. The Activity [24] was “Active”, the “growth inhibition (GI)” value (MDA-MB-453) was “Active” and the “growth inhibition (GI)” value (MCF7) was “Active”. The “growth inhibition (GI)” value (BT-549) was “Active”, the Activity (PC-3) was “Active” and the Activity (MCF-10A [25]) was 100%. The Activity [26] was 100%, the Activity (MCF-10A [27]) was “Non-toxic” and the Cmax [28] was 17.5 µM. For the same compound, the concentration at 8 h [29] was 0.2 µM and the Activity [30] was 100%.

— ChEMBL document CHEMBL6109159, “Discovery of a Potent and Selective Protein Arginine Methyltransferase 5 (PRMT5) PROTAC Degrader” (J Med Chem, 2025)
